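All cell lines were grown in 96-well plates and treated with compound for 48 hours. Here, GI50 denotes the concentration required for 50% inhibition of growth.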 Active and inactive are the calls of the source. No stated cut-off is given here; in the data, active = GI50 up to about 1.1 µM and inactive = higher.
Columns and labels:
Assay in all cases: NCI anticancer screen, dose series, 48 h
DLD-1 = system: DLD-1
SNB-78 = system: SNB-78
M19-MEL = system: M19-MEL
DMS-114 = system: DMS-114
XF498 = system: XF498
RXF 631 = system: RXF 631
HOP-18 = system: HOP-18
LXFL 529 = system: LXFL 529
DMS-273 = system: DMS-273

Measured: GI50

C[C@]12CCC3[C@@H](CC[C@@H]4c5nonc5CC[C@]34C)C1CC[C@@H]2O (stereo partly drawn)
inactive: DLD-1 26.3 µM | SNB-78 38.6 µM | M19-MEL 48 µM | DMS-114 29.2 µM | XF498 20.3 µM | RXF 631 33.1 µM | HOP-18 36.4 µM | LXFL 529 37 µM | DMS-273 23.9 µM

COC(=O)C(CCCCCCCC(C(=O)OC)C1=Nc2nnc(N)n2C1=O)C1=Nc2nnc(N)n2C1=O (stereo not drawn)
inactive: DLD-1 > 100 µM | SNB-78 > 100 µM | M19-MEL 26.1 µM | DMS-114 > 100 µM | XF498 > 100 µM | RXF 631 > 100 µM | HOP-18 > 100 µM | LXFL 529 > 100 µM | DMS-273 > 100 µM
